Results on two compounds are retold here after PMC5458547, “Discovery of first-in-class reversible dual small molecule inhibitors against G9a and DNMTs in hematological malignancies” (Nature Communications, 2017).

Like-named read-outs stand apart in the source and are kept apart here.

For data set [1], the system named is PFEIFFER
The experiment in a line: Cell proliferation assay (MTS). The class given is cell-based. The settings on record: Homo sapiens, GC-DLBCL, 48 h.

The subject of data set [2] is 5637. The experiment in a line: Cell proliferation assay (MTS). Type of data set: cell-based. The settings on record: Homo sapiens; Bladder.
The test system of data set [3] is RPMI 8226. The data set is described as follows: Cell proliferation assay (MTS). The class given is cell-based. Particulars: Homo sapiens, MM.
In data set [4] the target is T1, SUV39H1 (Homo sapiens, UniProt O43463).
T1 construct: purchased DiscoverX KINOMEscan (kinases); BPS Bioscience (epigenetic targets)
T1 sequence (O43463 whole entry): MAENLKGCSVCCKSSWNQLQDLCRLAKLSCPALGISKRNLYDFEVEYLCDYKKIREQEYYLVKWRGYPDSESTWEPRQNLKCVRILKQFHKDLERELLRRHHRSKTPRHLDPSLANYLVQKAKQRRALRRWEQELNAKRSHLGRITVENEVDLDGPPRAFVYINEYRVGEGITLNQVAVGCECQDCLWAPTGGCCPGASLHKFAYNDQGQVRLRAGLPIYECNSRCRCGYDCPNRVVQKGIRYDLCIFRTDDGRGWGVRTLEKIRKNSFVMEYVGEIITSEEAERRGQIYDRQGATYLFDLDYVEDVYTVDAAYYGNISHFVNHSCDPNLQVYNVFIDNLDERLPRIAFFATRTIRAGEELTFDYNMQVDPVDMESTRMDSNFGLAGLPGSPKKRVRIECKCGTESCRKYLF
The experiment in a line: Epigenetics selectivity panel (BPS Bioscience). The class given is biochemical.

For data set [5], the system named is H23. The data set is described as follows: Cell proliferation assay (MTS). Type of data set: cell-based. The settings on record: Homo sapiens, NCI-H23; NSCLC.
Data set [6] deals with Mia Paca-2. The data set is described as follows: Cell proliferation assay (MTS). The settings on record: Homo sapiens, Pancreas. Type of data set: cell-based.
A short description of data set [7]: Liver microsomal stability. The settings on record: mouse, mouse liver microsomes; read-out: Liver Microsomal Stability. Estimation T1/2. Type of data set: in vitro ADME.
The subject of data set [8] is H209. The experiment in a line: Cell proliferation assay (MTS). Type of data set: cell-based. The settings on record: Homo sapiens, NCI-H209; SCLC.
For data set [9], the system named is SU-DHL-8. The experiment in a line: Cell proliferation assay (MTS). The class given is cell-based. Particulars: Homo sapiens, ABC-DLBCL, 48 h.
Data set [10] has as its target T2, CDK11 (Homo sapiens, UniProt Q9BWU1).
T2 construct: purchased DiscoverX KINOMEscan (kinases); BPS Bioscience (epigenetic targets)
The data set is described as follows: KINOMEscan kinase profiling. Type of data set: binding. The settings on record: read-out: Percent Control. As to the method:
precipitate the proteins. The mixture was then agitated for 5 min and centrifuged at 13200 rpm for 10 min at 4 °C. A 5 µL aliquot of the resulting supernatant was injected onto the LC-MS/MS system for analysis.
Frozen plasma samples were thawed at room temperature, vortexed thoroughly and subjected to the above described extraction procedure.
The pharmacokinetic parameters were obtained by fitting the blood concentration-time data to a non-compartmental model with the WinNonlin software (Pharsight, Mountain View, CA). […]
concentration-time profile for a dosing regimen of 2.5 mg/kg administered intravenously every 24 h for 3 weeks was simulated with Winnonlin.
Kinase Selectivity Profiling
(out of which 90 are non-mutant kinases) was performed at DiscoverRx (http://www.discoverx.com/home) using the KINOMEscan™ screening platform at a test concentration of 10 µM. Results for primary screen […]
positive control signal) / (negative control signal – positive control signal) *100, where negative control corresponds to DMSO treatment (100%) and positive control to the signal obtained with a control competitive compound (0%). […]
using the Hill equation. […]
MicroScale Thermophoresis (MST) was performed to quantify biomolecular interactions between CM-579 and DNMT1 (full length). […]
Cell proliferation was analyzed using the CellTiter 96 Aqueous One Solution Cell Proliferation Assay (Promega, Madison, W). […]

Data set [11] concerns SK-MEL-103. The data set is described as follows: Cell proliferation assay (MTS). The settings on record: Homo sapiens, Melanoma. The class given is cell-based.
The subject of data set [12] is SEM cells. The experiment in a line: Cell proliferation assay (MTS). Type of data set: cell-based. Particulars: Homo sapiens; ALL, 48 h.
Data set [13] relates to J82. The data set is described as follows: Cell proliferation assay (MTS). The class given is cell-based. Particulars: Homo sapiens, Bladder.
Data set [14] concerns the target T3, JMJD2A (Homo sapiens, UniProt O75164).
T3 construct: purchased DiscoverX KINOMEscan (kinases); BPS Bioscience (epigenetic targets)
The experiment in a line: Epigenetics selectivity panel (BPS Bioscience). The class given is biochemical.

In data set [15] the test system is RT-4. The experiment in a line: Cell proliferation assay (MTS). Type of data set: cell-based. Particulars: Homo sapiens, Bladder.
Data set [16] relates to OCI-Ly7. The experiment in a line: Cell proliferation assay (MTS). Type of data set: cell-based. Particulars: Homo sapiens, GC-DLBCL, 48 h.
Data set [17] deals with NOMO-1. The data set is described as follows: Cell proliferation assay (MTS). The class given is cell-based. Particulars: Homo sapiens, AML, 48 h.
A short description of data set [18]: in vivo. Particulars: mouse, iv. Also noted: species or system mice.
Data set [19] concerns HT. The data set is described as follows: Cell proliferation assay (MTS). Type of data set: cell-based. The settings on record: Homo sapiens, GC-DLBCL, 48 h.
Data set [20] relates to DU145. The experiment in a line: Cell proliferation assay (MTS). Particulars: Homo sapiens, DU-145; Prostate. Type of data set: cell-based.
In data set [21] the target is T4, BRD1 (Homo sapiens, UniProt O95696).
T4 construct: purchased DiscoverX KINOMEscan (kinases); BPS Bioscience (epigenetic targets)
T4 sequence (O95696 whole entry): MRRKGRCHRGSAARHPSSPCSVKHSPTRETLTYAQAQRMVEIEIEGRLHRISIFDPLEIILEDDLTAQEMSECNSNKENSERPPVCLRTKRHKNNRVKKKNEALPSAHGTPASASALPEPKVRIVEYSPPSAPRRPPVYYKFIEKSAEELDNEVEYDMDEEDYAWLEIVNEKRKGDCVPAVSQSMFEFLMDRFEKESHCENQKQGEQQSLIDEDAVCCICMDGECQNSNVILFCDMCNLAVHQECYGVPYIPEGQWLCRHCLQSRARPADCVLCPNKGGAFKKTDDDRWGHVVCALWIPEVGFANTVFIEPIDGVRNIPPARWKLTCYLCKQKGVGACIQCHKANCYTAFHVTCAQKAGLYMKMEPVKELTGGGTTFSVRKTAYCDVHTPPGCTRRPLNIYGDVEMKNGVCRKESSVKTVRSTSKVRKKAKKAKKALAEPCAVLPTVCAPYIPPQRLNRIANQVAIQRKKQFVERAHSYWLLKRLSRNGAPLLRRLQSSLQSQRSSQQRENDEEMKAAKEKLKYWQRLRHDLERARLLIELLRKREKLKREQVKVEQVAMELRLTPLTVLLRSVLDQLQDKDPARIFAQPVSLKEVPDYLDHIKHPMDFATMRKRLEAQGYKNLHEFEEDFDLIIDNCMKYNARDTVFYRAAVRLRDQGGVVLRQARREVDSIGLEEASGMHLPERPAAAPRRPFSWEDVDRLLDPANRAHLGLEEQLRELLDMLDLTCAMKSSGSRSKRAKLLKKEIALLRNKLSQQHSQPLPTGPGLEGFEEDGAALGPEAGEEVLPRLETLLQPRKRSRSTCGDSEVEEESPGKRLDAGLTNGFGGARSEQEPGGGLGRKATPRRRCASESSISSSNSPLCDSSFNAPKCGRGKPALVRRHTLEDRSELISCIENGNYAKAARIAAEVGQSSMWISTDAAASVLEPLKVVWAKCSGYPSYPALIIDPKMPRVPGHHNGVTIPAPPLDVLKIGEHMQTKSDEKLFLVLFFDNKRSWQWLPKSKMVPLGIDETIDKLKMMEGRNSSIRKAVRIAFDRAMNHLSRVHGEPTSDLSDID
The experiment in a line: Epigenetics selectivity panel (BPS Bioscience). The class given is binding.

For data set [22], the system named is OPM2. The experiment in a line: Cell proliferation assay (MTS). The class given is cell-based. Particulars: Homo sapiens, OPM-2; MM.
For data set [23], the system named is H460. The experiment in a line: Cell proliferation assay (MTS). Particulars: Homo sapiens, NCI-H460; NSCLC. Type of data set: cell-based.
For data set [24], the system named is SU-DHL-7. The experiment in a line: Cell proliferation assay (MTS). Particulars: Homo sapiens; GC-DLBCL, 48 h. Type of data set: cell-based.
Data set [25] has as its system OCI-Ly10. The experiment in a line: Cell proliferation assay (MTS). Type of data set: cell-based, human. Particulars: ABC-DLBCL, 48 h, read-out: GI50.

T3 sequence (O75164 whole entry): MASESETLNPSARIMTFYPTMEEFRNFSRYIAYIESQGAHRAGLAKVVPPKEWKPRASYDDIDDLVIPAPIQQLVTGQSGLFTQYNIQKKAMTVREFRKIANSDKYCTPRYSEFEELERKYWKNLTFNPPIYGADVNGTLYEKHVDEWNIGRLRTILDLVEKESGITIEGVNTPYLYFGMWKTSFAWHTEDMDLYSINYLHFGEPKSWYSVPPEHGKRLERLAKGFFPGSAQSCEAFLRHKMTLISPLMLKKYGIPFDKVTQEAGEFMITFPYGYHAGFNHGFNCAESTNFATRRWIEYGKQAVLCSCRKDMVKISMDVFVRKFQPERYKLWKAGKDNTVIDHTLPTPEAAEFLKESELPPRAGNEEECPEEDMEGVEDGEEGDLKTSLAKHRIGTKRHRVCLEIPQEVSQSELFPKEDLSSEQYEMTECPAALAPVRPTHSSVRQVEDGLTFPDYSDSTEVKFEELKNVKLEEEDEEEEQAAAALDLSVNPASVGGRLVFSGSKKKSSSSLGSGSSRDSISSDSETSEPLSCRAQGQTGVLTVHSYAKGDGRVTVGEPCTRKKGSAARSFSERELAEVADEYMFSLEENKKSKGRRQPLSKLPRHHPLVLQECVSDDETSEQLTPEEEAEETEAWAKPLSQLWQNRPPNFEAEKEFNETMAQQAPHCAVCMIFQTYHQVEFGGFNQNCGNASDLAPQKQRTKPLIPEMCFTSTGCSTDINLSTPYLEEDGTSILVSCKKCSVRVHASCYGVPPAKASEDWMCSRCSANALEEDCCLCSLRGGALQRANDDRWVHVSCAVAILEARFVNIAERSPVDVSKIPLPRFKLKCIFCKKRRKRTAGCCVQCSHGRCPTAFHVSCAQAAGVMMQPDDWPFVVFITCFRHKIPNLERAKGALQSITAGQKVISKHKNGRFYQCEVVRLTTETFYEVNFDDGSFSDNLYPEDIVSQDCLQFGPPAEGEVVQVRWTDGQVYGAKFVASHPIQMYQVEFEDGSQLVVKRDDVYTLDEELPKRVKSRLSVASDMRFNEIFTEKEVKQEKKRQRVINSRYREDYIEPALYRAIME
T2 sequence (Q9BWU1 whole entry): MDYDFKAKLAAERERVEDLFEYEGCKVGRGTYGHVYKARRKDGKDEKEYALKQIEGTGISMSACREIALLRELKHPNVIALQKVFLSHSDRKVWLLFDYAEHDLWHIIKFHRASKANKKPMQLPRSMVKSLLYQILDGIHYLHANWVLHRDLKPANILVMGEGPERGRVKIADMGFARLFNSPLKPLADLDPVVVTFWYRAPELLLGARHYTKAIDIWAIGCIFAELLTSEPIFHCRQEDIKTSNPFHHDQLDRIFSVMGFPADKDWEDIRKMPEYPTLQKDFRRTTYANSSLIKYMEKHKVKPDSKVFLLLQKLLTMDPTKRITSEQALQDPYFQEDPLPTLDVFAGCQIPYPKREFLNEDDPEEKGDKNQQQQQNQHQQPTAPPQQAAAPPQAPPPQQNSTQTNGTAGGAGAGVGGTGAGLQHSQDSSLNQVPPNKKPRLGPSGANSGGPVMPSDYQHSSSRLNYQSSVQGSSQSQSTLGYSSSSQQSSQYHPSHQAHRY

As to `COc1cc2c(NC3CCN(C)CC3)cc(-c3ccc(C)o3)nc2cc1OCCCN1CCCC1` [CM-272, 6-methoxy-2-(5-methyl-2-furyl)-N-(1-methyl-4-piperidyl)-7-(3-pyrrolidin-1-ylpropoxy)quinolin-4-amine], the GI50 in data set [1] was 1220 nM; in data set [2], 717 nM; in [3] it was 2000 nM; in [5], 2490 nM; in data set [6], 206 nM; in data set [8], 1150 nM. The 50% growth inhibitory concentration (GI50) in [9] was 1950 nM; in data set [11], 281 nM; in data set [12], 3320 nM; in data set [13], over 10000 nM; in data set [15], 817 nM; in data set [16] it was 534 nM. Moreover, the GI50 in data set [17] came to 3560 nM; in data set [19] it was 1170 nM; in [20], 762 nM; in [22], 2610 nM; in [23], 1480 nM; in [24], 636 nM. In addition, the inhibition at 10 µM was 1% in data set [4], 1% in data set [14] and 0% in [21]. For the same compound, the half-life at 1 µM in data set [7] is 0.587 h. Also, the remaining binding at 10 µM in data set [10] worked out at 88%. In addition, the clearance in data set [18] ([…]) was 15.2 mL/min/kg. This compound had a half-life in data set [18] ([…]) of 24.2 h.

Turning to `COc1cc2c(NCC3CCN(C)CC3)cc(-c3ccc(C)o3)nc2cc1OCCCN1CCCC1` [CM-579, 6-methoxy-2-(5-methyl-2-furyl)-N-[(1-methyl-4-piperidyl)methyl]-7-(3-pyrrolidin-1-ylpropoxy)quinolin-4-amine], the GI50 is 5420 nM in [3]; 1140 nM in data set [5]; 29 nM in [11]; over 10000 nM in [12]; under 31 nM in [25]; 31 nM in data set [25] (Homo sapiens, OCI-Ly10, 48 h). Also, the GI50 in [17] was over 10000 nM; in [20] it was 223 nM; in data set [22], over 5000 nM; in [23], 4110 nM. Besides, the inhibition at 10 µM in data set [4] was 2%; in data set [14] it was 30%. Besides, the half-life at 1 µM in data set [7] was 0.178 h. Also, the AUC(0-t) in data set [18] (1 mg/kg) amounted to 0.268 µM·h. In addition, the highest level in data set [18] (1 mg/kg) (Cmax) was 191 nM. In data set [18] (1 mg/kg), this compound gave a clearance of 95 mL/min/kg. This compound also showed a half-life in data set [18] (1 mg/kg) of 6.26 h.
